Assay results taken from PubChem BioAssay AID1963432 (Molecular Pharmacology Branch, DTP, NCI, 2024).

Tested on: SYO-1 complex spheroid growth, percent test/control
Assay: Anticancer human tumor SYO-1 cell line growth inhibition [Asc];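 also: compound exposure lasted 7 days after spheroids grew 3 days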;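 as to viability, T/C: 100% = DMSO vehicle control viability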
Conditions: for viability, T/C: stronger effect = lower value
Outline: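 Spheroid model: tumor line + HUVEC + hMSC. Single agents and combinations; top conc. at/near clinical Cmax (10 microM if undetermined), half-log dilutions. DMSO stocks at 800-fold test concentration.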

In the case of Cc1c(S(C)(=O)=O)c(-c2cc(F)cc(N3CCN(c4ccc(NS(=O)(=O)c5ccc(NC(CCN6CCC(C(=O)OCCCP(=O)(O)O)CC6)CSc6ccccc6)c(S(=O)(=O)C(F)(F)F)c5)cc4)CC3)c2)c(-c2ccc(Cl)cc2)n1C(C)C (centres undefined), the viability, T/C (compound 0.0316 µM) is reported as 102% [middle of 7 runs], the viability, T/C (compound 0.1 µM) is reported as 100% [middle of 7 runs] and the viability, T/C (compound 0.316 µM) is reported as 96.5% [middle of 7 runs]. The viability, T/C (compound 1 µM) was 90.6% [middle of 7 runs], the viability, T/C (compound 3.16 µM) was 88.6% [middle of 7 runs] and the viability, T/C (compound 10 µM) was 79% [middle of 7 runs]. The IC50 (compound alone, run of 11/07/2022) was over 10 µM.
For C=CC(=O)N1CCN(c2nc(=O)n(-c3c(C)ccnc3C(C)C)c3nc(-c4c(O)cccc4F)c(F)cc23)C(C)C1 (centres undefined) + Cc1c(S(C)(=O)=O)c(-c2cc(F)cc(N3CCN(c4ccc(NS(=O)(=O)c5ccc(NC(CCN6CCC(C(=O)OCCCP(=O)(O)O)CC6)CSc6ccccc6)c(S(=O)(=O)C(F)(F)F)c5)cc4)CC3)c2)c(-c2ccc(Cl)cc2)n1C(C)C, the IC50 (curve of first compound, second compound 0.0316 µM) was over 10 µM, the IC50 (curve of first compound, second compound 0.1 µM) was over 10 µM and the IC50 (curve of first compound, second compound 0.316 µM) was over 10 µM. It also gave an IC50 (curve of first compound, second compound 1 µM) of over 10 µM, an IC50 (curve of first compound, second compound 3.16 µM) of over 10 µM and an IC50 (curve of first compound, second compound 10 µM) of over 10 µM. The viability, T/C (second compound 0.0316 µM, first compound 0.0316 µM) was 105%, the viability, T/C (second compound 0.0316 µM, first compound 0.1 µM) was 100% and the viability, T/C (second compound 0.0316 µM, first compound 0.316 µM) was 100%. It also gave a viability, T/C (second compound 0.0316 µM, first compound 1 µM) of 106%, a viability, T/C (second compound 0.0316 µM, first compound 3.16 µM) of 103% and a viability, T/C (second compound 0.0316 µM, first compound 10 µM) of 90.7%. It also gave a viability, T/C (second compound 0.1 µM, first compound 0.0316 µM) of 114%, a viability, T/C (second compound 0.1 µM, first compound 0.1 µM) of 103% and a viability, T/C (second compound 0.1 µM, first compound 0.316 µM) of 93.4%. It also gave a viability, T/C (second compound 0.1 µM, first compound 1 µM) of 99.9%, a viability, T/C (second compound 0.1 µM, first compound 3.16 µM) of 99.7% and a viability, T/C (second compound 0.1 µM, first compound 10 µM) of 87%. The viability, T/C (second compound 0.316 µM, first compound 0.0316 µM) was 98.3%, the viability, T/C (second compound 0.316 µM, first compound 0.1 µM) was 96.9% and the viability, T/C (second compound 0.316 µM, first compound 0.316 µM) was 101%. The viability, T/C (second compound 0.316 µM, first compound 1 µM) was 102%, the viability, T/C (second compound 0.316 µM, first compound 3.16 µM) was 88.3% and the viability, T/C (second compound 0.316 µM, first compound 10 µM) was 83.4%. It also gave a viability, T/C (second compound 1 µM, first compound 0.0316 µM) of 94.4%, a viability, T/C (second compound 1 µM, first compound 0.1 µM) of 94% and a viability, T/C (second compound 1 µM, first compound 0.316 µM) of 99.2%. For the same compound, the viability, T/C (second compound 1 µM, first compound 1 µM) was 100%, the viability, T/C (second compound 1 µM, first compound 3.16 µM) was 90.7% and the viability, T/C (second compound 1 µM, first compound 10 µM) was 83.6%. It also gave a viability, T/C (second compound 3.16 µM, first compound 0.0316 µM) of 91.5%, a viability, T/C (second compound 3.16 µM, first compound 0.1 µM) of 86.5% and a viability, T/C (second compound 3.16 µM, first compound 0.316 µM) of 93.2%. The viability, T/C (second compound 3.16 µM, first compound 1 µM) was 96.5%, the viability, T/C (second compound 3.16 µM, first compound 3.16 µM) was 87.9% and the viability, T/C (second compound 3.16 µM, first compound 10 µM) was 81%. The viability, T/C (second compound 10 µM, first compound 0.0316 µM) was 90%, the viability, T/C (second compound 10 µM, first compound 0.1 µM) was 81.4% and the viability, T/C (second compound 10 µM, first compound 0.316 µM) was 83.9%. The viability, T/C (second compound 10 µM, first compound 1 µM) was 79.5%, the viability, T/C (second compound 10 µM, first compound 3.16 µM) was 89.9% and the viability, T/C (second compound 10 µM, first compound 10 µM) was 76.1%.
